# Patent publication US10881110B2, “Herbicidal compositions comprising isoxazolo[5,4-b]pyridines” (BASF SE, priority 2014, dated 2021)
# Tests used:
# Experiment in all cases: greenhouse post-emergence herbicidal test
# [1] = tested on: GERDI; type: in vivo, Geranium dissectum; design: key to herbicidal activity against GERDI found: rating on a scale from 0 to 100; conditions: post emergence
# Procedure, shortened: (§1)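 Herbicidal activity scored on a 0 (no damage) to 100 (plants destroyed) scale, usually 20 days after water-based spraying of 1–15 cm plants grown in loamy sand at 10-25 °C or 20-35 °C depending on species. Components were applied from 10% emulsion concentrates; Colby's E=X+Y−(X·Y/100) gives the additive expectation.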
# [2] = tested on: ABUTH; type: in vivo, Abutilon theophrast; design: key to herbicidal activity against ABUTH found: rating on a scale from 0 to 100; conditions: post emergence
# Procedure, shortened: as §1
# [3] = tested on: POLCO; type: in vivo, Polygonum convolvulus; design: key to herbicidal activity against POLCO found: rating on a scale from 0 to 100; conditions: post emergence
# Procedure, shortened: (§2)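 Post-emergence greenhouse test: plants in loamy sand, sprayed at 1–15 cm height with aqueous spray liquor from 10% emulsion concentrates, kept at 10-25 °C or 20-35 °C by species. Damage scored 0–100 (100 = complete destruction), usually 20 days after treatment. Expected additive effect E from Colby: E=X+Y−(X·Y/100).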
# [4] = tested on: MATCH; type: in vivo, Matricaria recutita; design: key to herbicidal activity against MATCH found: rating on a scale from 0 to 100; conditions: post emergence
# Procedure, shortened: as §1
# [5] = tested on: GALAP; type: in vivo, Galium aparine; design: key to herbicidal activity against GALAP found: rating on a scale from 0 to 100; conditions: post emergence
# Procedure, shortened: as §2
# [6] = tested on: POLPE; type: in vivo, Persicaria maculosa; design: key: scale 0 to 100
# Procedure: (§3) The culture containers used were plastic pots containing medium loamy sand with approximately 4.6% of humus and 69.9% sand as substrate. The seeds of the test plants were sown separately for each species.
# (§4) For the post-emergence treatment, the test plants were grown to a plant height of from 1 to 15 cm, depending on the plant habit, and only then treated with the active compounds which had been suspended or emulsified in water. To this end, the test plants were either sown directly, and grown in the same containers, or they were first grown separately as seedlings and transplanted into the test containers a few days prior to treatment.
# (§5) Depending on the species, the plants were kept at 10-25° C. and 20-35° C., respectively.
# (§6) The test period extended over 1 to 3 weeks. During this time, the plants were tended and their response to the individual treatments was evaluated 20 days after treatment except mentioned otherwise.
# (§7) Evaluation was carried out using a scale from 0 to 100. 100 means no emergence of the plants, or complete destruction of at least the above-ground parts, and 0 means no damage or normal course of growth.
# (§8) The respective stated components A and B, and, if appropriate, C, were formulated as a 10% by weight strength emulsion concentrate and, with addition of the amount of solvent system, introduced into the spray liquor used for applying the active compound. In the examples, the solvent used was water.
# (§9) In the examples below, using the method of S. R. Colby (1967) “Calculating synergistic and antagonistic responses of herbicide combinations”, Weeds 15, p. 22 ff., the value E, which is expected if the activity of the individual active compounds is only additive, was calculated. E=X+Y−(X·Y/100)
# [7] = tested on: LAMAM; type: in vivo, Lamium amplexicaule; design: key: scale 0 to 100
# Procedure: as §3, §4, §5, §6, §7, §8, §9
# [8] = tested on: VIOAR; type: in vivo, Viola arvensis; design: key to herbicidal activity against VIOAR found / herbicidal activity against VIOLA found: rating on a scale from 0 to 100; conditions: post emergence
# Procedure, shortened: as §2
# [9] = tested on: CONAR; type: in vivo, Convolvulus arvensis; design: key: rating on a scale from 0 to 100
# Procedure, shortened: as §1
# [10] = tested on: PAPRH; type: in vivo, Papaver rhoeas; design: key: rating on a scale from 0 to 100
# Procedure, shortened: as §1
# [11] = tested on: STEME; type: in vivo, Stellaria media; design: key: scale 0 to 100
# Procedure, shortened: as §1
# [12] = tested on: POLAV; type: in vivo, Polygonum aviculare; design: key: rating on a scale from 0 to 100
# Procedure: as §3, §4, §5, §6, §7, §8, §9
# [13] = tested on: GERPU; type: in vivo, Geranium pusillum; conditions: application rate a.i.: I.1 31.25 g/ha, B.87 (carfentrazone-ethyl) 1.75 g/ha, alone or as mixture (composition 1.87)
# Procedure: as §3, §4, §5, §6, §7, §8, §9
# [14] = tested on: SEBEX; type: in vivo, Sesbania exaltata; conditions: application rate a.i.: I.1 31.25 g/ha, B.87 (carfentrazone-ethyl) 1.75 g/ha, alone or as mixture (composition 1.87)
# Procedure: as §3, §4, §5, §6, §7, §8, §9
# [15] = tested on: PANMI; type: in vivo, Panicum miliaceum; conditions: application rate a.i.: I.1 125 g/ha, alone or as mixture (composition 1.113)
# Procedure: as §3, §4, §5, §6, §7, §8, §9
# [16] = tested on: CHEAL; type: in vivo, Chenopodium album
# Procedure: as §3, §4, §5, §6, §7, §8, §9
# [17] = tested on: LOLMU; type: in vivo, Lolium multiflorum
# Procedure: as §3, §4, §5, §6, §7, §8, §9
# [18] = tested on: PHACA; type: in vivo
# Procedure: as §3, §4, §5, §6, §7, §8, §9
# [19] = tested on: ECHCG; type: in vivo, Echinochloa crus-galli; design: key to herbicidal activity against ECHCG found / herbicidal activity against ECHCH found: scale 0 to 100; conditions: post emergence, 20 days after treatment
# Procedure, shortened: as §1
# [20] = tested on: ALOMY; type: in vivo, Alopecurus myosuroides; design: key to herbicidal activity against ALOMY found: rating on a scale from 0 to 100; conditions: post emergence, 20 days after treatment
# Procedure, shortened: as §1
# [21] = tested on: APESV; type: in vivo, Apera spica-venti; design: key to herbicidal activity against APESV found: rating on a scale from 0 to 100; conditions: post emergence, 20 days after treatment
# Procedure, shortened: as §1
# [22] = application rate a.i.: I.1 62.5 g/ha, B.87 (carfentrazone-ethyl) 1.75 g/ha, alone or as mixture (composition 1.87)
# [23] = application rate a.i.: I.1 31.25 g/ha, B.87 (carfentrazone-ethyl) 1.75 g/ha, alone or as mixture (composition 1.87)
# [24] = application rate a.i.: I.1 125 g/ha, B.113 (glyphosate) 135 g/ha, alone or as mixture (composition 1.113)
# [25] = application rate a.i.: I.1 125 g/ha, B.113 (glyphosate) 33.75 g/ha, alone or as mixture (composition 1.113)
# [26] = a.i. g/ha: I.1 7.8, B.67 125, 20 days after treatment
# [27] = a.i. g/ha: I.1 15.6, B.67 125, 20 days after treatment
# [28] = a.i. g/ha: I.1 31.25, B.67 125, 20 days after treatment
# [29] = a.i. g/ha: I.1 31.25, B.67 125, 20 days after treatment, sub-table r36-r43
# [30] = a.i. g/ha: I.1 62.5, B.67 125, 20 days after treatment
# [31] = a.i. g/ha: I.1 6.9, B.67 62.5, 20 days after treatment
# [32] = a.i. g/ha: I.1 20.8, B.67 62.5, 20 days after treatment
# [33] = a.i. g/ha: I.1 62.5, B.67 62.5, 20 days after treatment
smiles,measurement,setting,value
"Cc1cc(Cl)ccc1OCC(=O)O [B.164, MCPA]",herbicidal activity against GERDI found,[1]; 100 g/ha a.i.,65
same,herbicidal activity against ABUTH found,[2]; 200 g/ha a.i.,80
same,herbicidal activity against POLCO found,[3]; 200 g/ha a.i.,50
same,herbicidal activity against POLCO found,[3]; 400 g/ha a.i.,50
same,herbicidal activity against MATCH found,[4]; 400 g/ha a.i.,50
same,herbicidal activity against GALAP found,[5]; 400 g/ha a.i.,30
same,herbicidal activity against POLPE found,[6]; 200 g/ha a.i.,65
same,herbicidal activity against POLPE found,[6]; 400 g/ha a.i.,80
same,"herbicidal activity against LAMAM, found",[7]; 200 g/ha a.i.,65
same,"herbicidal activity against LAMAM, found",[7]; 400 g/ha a.i.,70
same,herbicidal activity against VIOAR found,[8]; 100 g/ha a.i.,60
same,herbicidal activity against VIOAR found,[8]; 200 g/ha a.i.,65
same,herbicidal activity against VIOAR found,[8]; 400 g/ha a.i.,70
same,herbicidal activity against CONAR found,[9]; 200 g/ha a.i.,90
same,herbicidal activity against CONAR found,[9]; 400 g/ha a.i.,90
same,herbicidal activity against PAPRH found,[10]; 100 g/ha a.i.,60
same,herbicidal activity against PAPRH found,[10]; 200 g/ha a.i.,65
same,herbicidal activity against STEME found,[11]; 100 g/ha a.i.,50
same,herbicidal activity against STEME found,[11]; 200 g/ha a.i.,60
same,herbicidal activity against STEME found,[11]; 400 g/ha a.i.,80
same,herbicidal activity against POLAV found,[12]; 100 g/ha a.i.,70
same,herbicidal activity against POLAV found,[12]; 200 g/ha a.i.,85
same,herbicidal activity against POLAV found,[12]; 400 g/ha a.i.,85
"CCOC(=O)C(Cl)Cc1cc(-n2nc(C)n(C(F)F)c2=O)c(F)cc1Cl (stereo not shown) [B.87, carfentrazone-ethyl]",herbicidal activity against GERDI found,[1]; [22],70
same,herbicidal activity against MATCH found,[4]; [23],75
same,herbicidal activity against MATCH found,[4]; [22],75
same,"herbicidal activity against LALAM, found",[7]; [23],80
same,"herbicidal activity against LAMAM, found",[7]; [22],80
same,"herbicidal activity against GERPU, found",[13],75
same,herbicidal activity against PAPRH found,[10]; [22],30
same,"herbicidal activity against SEBEX, found",[14],75
"O=C(O)CNCP(=O)(O)O [B.113, glyphosate]",herbicidal activity against GERDI found,[1]; [24],80
same,herbicidal activity against GALAP found,[5]; [25],50
same,herbicidal activity against GALAP found,[5]; [24],80
same,herbicidal activity against CONAR found,[9]; [25],45
same,"herbicidal activity against PANMI, found",[15]; B.113 (glyphosate) 33.75 g/ha,80
same,"herbicidal activity against PANMI, found",[15]; B.113 (glyphosate) 135 g/ha,90
"CCNc1nc(Cl)nc(NC(C)C)n1 [B.67, atrazine]",herbicidal activity against GERDI found,[1]; [26],70%
same,herbicidal activity against GERDI found,[1]; [27],70%
same,herbicidal activity against GERDI found,[1]; [28],85%
same,herbicidal activity against GERDI found,[1]; [29],85%
same,herbicidal activity against GERDI found,[1]; [30],70%
same,herbicidal activity against CHEAL found,[16]; [31],75%
same,herbicidal activity against CHEAL found,[16]; [27],80%
same,herbicidal activity against CHEAL found,[16]; [32],75%
same,herbicidal activity against CHEAL found,[16]; [28],80%
same,herbicidal activity against LOLMU found,[17]; [26],35%
same,herbicidal activity against LOLMU found,[17]; [27],35%
same,herbicidal activity against LOLMU found,[17]; [28],35%
same,herbicidal activity against LOLMU found,[17]; [33],20%
same,herbicidal activity against LOLMU found,[17]; [30],35%
same,herbicidal activity against ABUTH found,[2]; [26],60%
same,herbicidal activity against ABUTH found,[2]; [27],60%
same,herbicidal activity against ABUTH found,[2]; [28],60%
same,herbicidal activity against ABUTH found,[2]; [29],60%
same,herbicidal activity against ABUTH found,[2]; [30],60%
same,herbicidal activity against PHACA found,[18]; [28],30%
same,herbicidal activity against PHACA found,[18]; [30],30%
same,herbicidal activity against ECHCG found,"[19]; a.i. g/ha: I.1 20.8, B.67 62.5",35%
same,herbicidal activity against ECHCG found,"[19]; a.i. g/ha: I.1 62.5, B.67 62.5",35%
same,herbicidal activity against POLCO found,[3]; [27],60%
same,herbicidal activity against POLCO found,[3]; [32],80%
same,herbicidal activity against POLCO found,[3]; [28],60%
same,herbicidal activity against POLCO found,[3]; [33],80%
same,herbicidal activity against MATCH found,[4]; [28],70%
same,herbicidal activity against MATCH found,[4]; [29],70%
same,herbicidal activity against MATCH found,[4]; [30],50%
same,herbicidal activity against GALAP found,[5]; [27],70%
same,herbicidal activity against GALAP found,[5]; [32],65%
same,herbicidal activity against GALAP found,[5]; [28],70%
same,herbicidal activity against GALAP found,[5]; [33],65%
same,herbicidal activity against ALOMY found,"[20]; a.i. g/ha: I.1 6.9, B.67 62.5",35%
same,herbicidal activity against ALOMY found,"[20]; a.i. g/ha: I.1 20.8, B.67 62.5",35%
same,herbicidal activity against ALOMY found,"[20]; a.i. g/ha: I.1 62.5, B.67 62.5",35%
same,herbicidal activity against CONAR found,[9]; [26],65%
same,herbicidal activity against CONAR found,[9]; [27],65%
same,herbicidal activity against CONAR found,[9]; [32],60%
same,herbicidal activity against CONAR found,[9]; [28],65%
same,herbicidal activity against CONAR found,[9]; [33],60%
same,herbicidal activity against CONAR found,[9]; [30],65%
same,herbicidal activity against APESV found,"[21]; a.i. g/ha: I.1 2.3, B.67 62.5",60%
same,herbicidal activity against APESV found,"[21]; a.i. g/ha: I.1 6.9, B.67 62.5",60%
same,herbicidal activity against STEME found,"[11]; a.i. g/ha: I.1 2.3, B.67 62.5, 20 days after treatment",80%
same,herbicidal activity against STEME found,[11]; [31],80%
same,herbicidal activity against STEME found,[11]; [27],75%
same,herbicidal activity against STEME found,[11]; [32],80%
same,herbicidal activity against STEME found,[11]; [28],75%
same,herbicidal activity against STEME found,[11]; [29],75%
